The text below walks through data of US8722659B2, “Quinazolinedione derivatives, preparation thereof and various therapeutic uses thereof” (Sanofi, priority 2009, dated 2014).

As usually defined, the pIC50 is −log10 of the IC50, conventionally taken in molar units. Low values mean a large IC50, high ones a small IC50.

One test has as its target T1, Human PDE7 (Homo sapiens, UniProt Q13946).
T1 construct: Human PDE7 was partially purified from the cell line HUT-78; endogenous in cells; host or cells: HUT-78 (human T-cell line), partially purified enzyme preparation
In words: PDE7 enzymatic test ([3H]-cAMP hydrolysis, TLC on PEI cellulose). The class given is biochemical. The following applies: human PDE7 partially purified from HUT-78; cAMP concentration about 4 times the Km; 10 μM rolipram present. As to the method: (§1) The capacity of the compounds of formula (I) to inhibit PDE7 is measured by means of an enzymatic test based on separating radioactive cAMP (substrate of PDE7) from radioactive 5′-AMP (product of the enzymatic reaction) by thin-layer chromatography on polyethyleneimine (PEI) cellulose, after stopping the enzymatic reaction. The 5′-AMP is quantitatively extracted from the PEI cellulose and its radioactivity is measured using a liquid scintillation counter.
The inhibitory activity of the compounds of formula (I) on PDE7 is represented by the inhibition constant IC50, defined as the concentration of test compound (inhibitor) in the trial that can reduce the enzymatic activity of PDE7 by 50%. The lower the IC50 values, the greater the inhibitory power of the compounds.
Human PDE7 was partially purified from the cell line HUT-78 by following a method similar to that described by Bloom and Beavo (Proc. Natl. Acad. Sci. USA, (1996) 93, 14188-14192). The enzyme preparation obtained is stored at −80° C. in a buffer containing 20 mM of Tris-HCl (pH 7.0), 5 mM of MgCl2, 4 mM of EDTA, 1 mM of dithiothreitol and 20% glycerol. […] The Michaelis constant (Km) of PDE7 for cAMP, measured using the radiochemical test described hereinbelow, is 21 nM.
The compounds of formula (I) to be tested as PDE7 inhibitors are dissolved in DMSO to a concentration of 10 mM. These solutions are then serially diluted in DMSO to obtain solutions of desired concentrations. These solutions are then diluted 20-fold in the test buffer to give solutions containing 5% DMSO. These solutions are finally diluted 5-fold in the enzymatic test.
The test is performed in 1.5-ml Eppendorf tubes containing 40 mM of Tris-HCl (pH 7.5), 15 mM of MgCl2, 1 mM of EGTA, 0.5 mg/ml of bovine serum albumin, 0.25 μCi of [^3H]-cAMP (corresponding to a cAMP concentration of between 60 and 100 nM), 10 μM of rolipram and PDE7 in a final volume of 100 μl. The test is performed in the absence (control sample) or in the presence (treated sample) of compounds tested as PDE7 inhibitors. The final concentration of DMSO in the test is […]. The reaction is initiated by adding enzyme and the samples are maintained at room temperature for 30 minutes. The enzymatic dilution is adjusted so as to obtain a degree of conversion of 10% to 15%. The enzymatic reaction is stopped by immersing the stoppered Eppendorf tubes in a water bath at 100° C. for 3 minutes. Blanks (reaction stopped immediately after adding the enzyme) are included in each experiment. The samples are then centrifuged at 10 000×g for 1 minute and a 10 μl aliquot portion of the supernatant is deposited 2 cm from the bottom edge of a sheet of PEI cellulose onto which 10 μg of cAMP and 10 μg of 5′-AMP have previously been deposited. To facilitate the migration and the subsequent cutting of the PEI cellulose strips containing the 5′-AMP, 18 migration paths 1 cm wide are delimited per plate by scraping the cellulose with a spatula over a width of 1 mm. The plates are developed over their entire length with a 0.30 M solution of LiCl in water by ascending chromatography. The 5′-AMP (Rf=0.20) and the cAMP (Rf=0.47) are visualized under UV light at 254 nm. The PEI cellulose bands containing the 5′-AMP are cut out and the nucleotide is extracted quantitatively into counting flasks with 2 ml of a solution containing 16 M of formic acid and 2 M of ammonium formate in water (rotary stirring for 15 minutes). After adding 10 ml of scintillation liquid (OptiPhase HiSafe 3 from Perkin-Elmer/Wallac), the radioactivity is counted using a liquid scintillation counter (Perkin-Elmer/Wallac model 1414). Each test is performed in duplicate. The radioactivity specifically associated with the 5′-AMP formed in the enzymatic reaction is obtained by subtracting the mean value of the blanks from the mean value of the controls (or of the treated samples). […]

The test system of the next test is CLL-PBMCs. The following applies: PBMC of chronic lymphocytic leukaemia patients; cited from earlier work.
Test [1] deals with PBMCs of normal individuals. The settings on record: cited from earlier work.
The test system of the next test is PDE8. The test is described as follows: PDE8 enzymatic test equivalent to that described for PDE7. The class given is biochemical. The settings on record: at 0.1 μM. As to the method:
as §1
The test is performed in 1.5-ml Eppendorf tubes containing 40 mM of Tris-HCl (pH 7.5), 15 mM of MgCl2, 1 mM of EGTA, 0.5 mg/ml of bovine serum albumin, 0.25 μCi of [^3H]-cAMP (corresponding to a cAMP concentration of between 60 and 100 nM), 10 μM of rolipram and PDE7 in a final volume of 100 μl. The test is performed in the absence (control sample) or in the presence (treated sample) of compounds tested as PDE7 inhibitors. The final concentration of DMSO in the test is 2%. […] The PEI cellulose bands containing the 5′-AMP are cut out and the nucleotide is extracted quantitatively into counting flasks with 2 ml of a solution containing 16 M of formic acid and 2 M of ammonium formate in water (rotary stirring for 15 minutes). After adding 10 ml of scintillation liquid (OptiPhase HiSafe 3 from Perkin-Elmer/Wallac), the radioactivity is counted using a liquid scintillation counter (Perkin-Elmer/Wallac model 1414). […]

pIC50: −log10 of the molar value.

T1 sequence (Q13946 whole entry): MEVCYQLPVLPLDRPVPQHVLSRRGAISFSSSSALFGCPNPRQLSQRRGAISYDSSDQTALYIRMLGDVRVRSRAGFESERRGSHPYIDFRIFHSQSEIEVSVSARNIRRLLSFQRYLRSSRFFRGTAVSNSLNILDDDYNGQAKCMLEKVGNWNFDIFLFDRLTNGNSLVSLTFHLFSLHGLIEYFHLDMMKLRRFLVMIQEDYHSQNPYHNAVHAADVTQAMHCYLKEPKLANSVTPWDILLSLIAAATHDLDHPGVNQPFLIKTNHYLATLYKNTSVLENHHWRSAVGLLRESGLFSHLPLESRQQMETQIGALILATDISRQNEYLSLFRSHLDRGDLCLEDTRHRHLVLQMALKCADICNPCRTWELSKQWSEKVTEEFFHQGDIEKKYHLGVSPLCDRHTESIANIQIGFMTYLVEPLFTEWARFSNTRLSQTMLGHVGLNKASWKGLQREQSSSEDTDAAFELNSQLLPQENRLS

Consider `COc1ccc(Cn2c(=O)c3cc(OCC#N)ccc3n(C3CC[S+]([O-])CC3)c2=O)cc1OC` (single isomer, unassigned; isomer 1) [Compound 17, {[3-(3,4-dimethoxybenzyl)-1-(1-oxidotetrahydro-2H-thiopyran-4-yl)-2,4-dioxo-1,2,3,4-tetrahydroquinazolin-6-yl]oxy}acetonitrile (isomer 1)], for which the pIC50 against Human PDE7 was 8.21.
As to `Cc1ccc([N+](=O)[O-])cc1S(=O)(=O)N(C)C` [BRL-50481], the “apoptosis of CLL-PBMCs” value in the test on CLL-PBMCs was “induces dose-dependent apoptosis”. In addition, in test [1], the “effect on the PBMCs of normal individuals” value is listed as “no effect”.
Compound `COc1ccc(Cn2c(=O)c3cc(OCC#N)ccc3n(C3CCOCC3)c2=O)cc1OC` [Compound 2, {[3-(3,4-dimethoxybenzyl)-2,4-dioxo-1-(tetrahydro-2H-pyran-4-yl)-1,2,3,4-tetrahydroquinazolin-6-yl]oxy}acetonitrile] gave a pIC50 against Human PDE7 of 8.05.
Regarding `COc1ccc(Cn2c(=O)c3cc(OCC#N)ccc3n(C3CCOCC3)c2=O)cn1` [Compound 9, ({3-[(6-methoxypyridin-3-yl)methyl]-2,4-dioxo-1-(tetrahydro-2H-pyran-4-yl)-1,2,3,4-tetrahydroquinazolin-6-yl}oxy)acetonitrile], on Human PDE7, the pIC50 is 7.80.
The compound `COc1ccc(Cn2c(=O)c3cc(OCC#N)ccc3n(C3CCSCC3)c2=O)cc1OC` [Compound 11, {[3-(3,4-dimethoxybenzyl)-2,4-dioxo-1-(tetrahydro-2H-thiopyran-4-yl)-1,2,3,4-tetrahydroquinazolin-6-yl]oxy}acetonitrile] gave a pIC50 on Human PDE7 of 8.26.
The same measure, in the same setting: as for `COc1ccc(Cn2c(=O)c3cc(OCC#N)ccc3n(C3CCS(=O)(=O)CC3)c2=O)cc1OC` [Compound 14, {[3-(3,4-dimethoxybenzyl)-1-(1,1-dioxidotetrahydro-2H-thiopyran-4-yl)-2,4-dioxo-1,2,3,4-tetrahydroquinazolin-6-yl]oxy}acetonitrile], the figure is 6.64.
Still for that read-out and setting: the same measure for `COc1ccc(Cn2c(=O)c3cc(CO)ccc3n(C3CCOCC3)c2=O)cc1OC` [Compound 45, 3-(3,4-dimethoxybenzyl)-6-(hydroxymethyl)-1-(tetrahydro-2H-pyran-4-yl)-quinazoline-2,4(1H,3H)-dione]: 7.21; for `COc1ccc(Cn2c(=O)c3cc(CF)ccc3n(C3CCOCC3)c2=O)cc1OC` [Compound 60, 3-(3,4-dimethoxybenzyl)-6-(fluoromethyl)-1-(tetrahydro-2H-pyran-4-yl)-quinazoline-2,4(1H,3H)-dione]: 7.92.
As for `COc1cc(Cn2c(=O)c3cc(OC(CF)CF)c(F)cc3n(C3CCOCC3)c2=O)ccc1OCc1ccccc1` [Compound 64, 3-[4-(benzyloxy)-3-methoxybenzyl]-6-[(1,3-difluoropropan-2-yl)oxy]-7-fluoro-1-(tetrahydro-2H-pyran-4-yl)quinazoline-2,4(1H,3H)-dione], in the test with PDE8, the “inhibition of PDE8” value is 59%.
